Test results taken from patent publication US12590093B2, “Indolo[2′,3′:3,4]pyrido[2,1-b]quinazoline compound and use thereof” (INSTITUTE OF MEDICINAL BIOTECHNOLOGY CHINESE ACADEMY OF …, priority 2019, dated 2026).

Tests used:
[1] = target: T1, PPARα (Homo sapiens, UniProt Q07869); test: Nuclear receptor reporter gene transient transfection (pBIND-hPPARs-LBD) in HepG2 cells, PPARα; assay type: cell-based; details: FIG. 2, result in words
T1 construct: expressed in transfected cells; host or cells: HepG2
T1 sequence (Q07869 239-466 limits assumed): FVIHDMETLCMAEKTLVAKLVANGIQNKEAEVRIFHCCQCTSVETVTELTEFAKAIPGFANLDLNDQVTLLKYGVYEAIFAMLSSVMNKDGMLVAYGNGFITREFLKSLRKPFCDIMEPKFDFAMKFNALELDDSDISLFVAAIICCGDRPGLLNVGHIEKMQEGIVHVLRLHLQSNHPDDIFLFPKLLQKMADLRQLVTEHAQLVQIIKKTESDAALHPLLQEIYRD
Protocol: HepG2 cells in logarithmic growth phase were digested, seeded into the white/clear 96-well plate at a density of 5×10^4 cells/well/100 μL until the cells grew to about 90% confluence and in good condition. 0.5 μL liposome (Lipofectamine® 2000) diluted with blank medium to 25 μL per well and incubated at room temperature for 5 min. The corresponding plasmids DNA (nuclear receptor plasmid:Gal4=1:10) were diluted in blank DMEM medium to 25 μL/well (mixing of two plasmids), then mixed evenly with the diluted liposome, and incubated for 20 min at 37° C. The DNA-liposome complex (50 μL per well) was added with the DMEM complete medium (100 μL per well) and mixed thoroughly to obtain a DNA-liposome complex cell culture. The cell medium was discarded, and replaced with the DNA-liposome complex cell culture (150 μL/well) (37° C., 5% CO2). After 6 h, the DNA-liposome complex cell culture medium was discarded, and 200 μL serum-free DMEM medium containing the compound at an appropriate concentration was added to each test well, and cultured for 18-24 h. The cell Luciferase activity was measured by the method as described in the Luciferase Assay System.

[2] = system: ApoE^−/− mice; test: Atherosclerosis model in ApoE−/− mice on high-fat diet, Oil Red O staining of aorta; assay type: in vivo; details: 5 mg/kg intragastrically, 12 weeks, HFD, versus model group
Protocol: 6-week-old male C57/BL6 ApoE^−/− mice were fed on normal chaw diet for one week. The mice were randomly divided into three groups (control group, high-fat diet model group, and treatment group, 12 mice per group) according to the body weight. From 7-week-old, the high-fat diet model group and the treatment group were fed on a high fat diet (HFD) (0.15% cholesterol and 20% fat), and the control group was fed on normal chow diet. The treatment group (R3) mice were administered intragastrically with TR3 (5 mg/kg). The control group and the high-fat diet model group mice were intragastrically administered with sodium carboxymethylcellulose (CMC-Na) solution. After 12 weeks of administration, all mice were fasted overnight. The blood sample was taken from the retro-orbital plexus, collected in a EP tube, and then centrifuged for 15 min (2500 rpm). The centrifuged serum (upper layer) was transferred to new EP tubes (divided into two aliquots) and stored at −20° C. for further use. The mice were fixed, and the skin was cut open along the midline of the abdomen to the neck. The abdominal cavity was cut open to collect the fresh liver tissue. The Liver tissue was put into 3 freezing tubes, and then immediately put into liquid nitrogen for subsequent detection of liver lipid detection and extraction of RNA and protein. The thorax was cut open to expose the heart. […]

[3] = system: ApoE^−/− mice; test: Serum inflammatory factor levels in ApoE−/− mice (ELISA); assay type: in vivo; details: 5 mg/kg intragastrically, 12 weeks, HFD
Protocol: 6-week-old male C57/BL6 ApoE^−/− mice were fed on normal chaw diet for one week. The mice were randomly divided into three groups (control group, high-fat diet model group, and treatment group, 12 mice per group) according to the body weight. From 7-week-old, the high-fat diet model group and the treatment group were fed on a high fat diet (HFD) (0.15% cholesterol and 20% fat), and the control group was fed on normal chow diet. The treatment group (R3) mice were administered intragastrically with TR3 (5 mg/kg). The control group and the high-fat diet model group mice were intragastrically administered with sodium carboxymethylcellulose (CMC-Na) solution. After 12 weeks of administration, all mice were fasted overnight. The blood sample was taken from the retro-orbital plexus, collected in a EP tube, and then centrifuged for 15 min (2500 rpm). The centrifuged serum (upper layer) was transferred to new EP tubes (divided into two aliquots) and stored at −20° C. for further use. The mice were fixed, and the skin was cut open along the midline of the abdomen to the neck. The abdominal cavity was cut open to collect the fresh liver tissue. The Liver tissue was put into 3 freezing tubes, and then immediately put into liquid nitrogen for subsequent detection of liver lipid detection and extraction of RNA and protein. The thorax was cut open to expose the heart. The heart was perfused with 10 ml PBS, and then fixed by perfusion with 4% paraformaldehyde solution until the liver turned white. The fixed liver was taken out and placed in a six-well plate containing 4% paraformaldehyde solution for further fixation. The full-length aorta (from the ascending aorta to the common iliac arteries) was isolated and placed in a six-well plate containing 4% paraformaldehyde solution. The aorta was fixed in 4% paraformaldehyde solution overnight and then stored in 20% sucrose solution at 4° C.
The levels of IL-1β, IL-18, IL-6, TNF-α and IL-10 in the serum of ApoE^−/− mice were measured by using the corresponding ELISA kits (Nanjing Sen Bei Jia Biotechnology Co., Ltd., Nanjing, China). Standard dilution and addition: the standard was diluted by gradient, and 10 wells on the coated ELISA plate were set for standard addition. Sample addition: blank wells and sample wells were set separately. The sample wells of the coated ELISA plates were first added with 40 μL sample diluent, and then added 10 μL sample (the final dilution of the sample is 5-fold). […] Assay detection: the absorbance at 450 nm of each well was read with the absorbance at 450 nm of the blank well as zero, and this process was performed within 15 min after the stop solution was added.

[4] = system: AMPK; test: AMPK level in RAW 264.7 cells by western-blot; assay type: cell-based, Murine; details: 1 μM, 18-24 h treatment, FIG. 11
Protocol: Murine macrophages RAW 264.7 cells were subcultured about every 48 h. When the cells were approximately 100% confluent, the old culture medium was removed, and the cells were washed with PBS and digested with trypsin at an appropriate amount for about 2 min at RT. After the digestion solution was removed, the RPMI-1640 complete medium containing 10% FBS was added immediately to inhibit the activity of trypsin. The cells in the culture flask were repeatedly and gently blown with a curved straw, so that they were completely detached from the bottom of the flask and dispersed into the single-cell suspension. The cells were seeded into a new cell flask at a density of 1:4-1:6, and added with an appropriate amount of the complete medium. The flask was placed in an incubator and cultured at 37° C., 5% CO2. RAW264.7 cells were pretreated with si-AMPK (AMPK siRNA) for 24 h, and then treated with compound TR3 (1 μM) for 24 h. The expression of ABCA1 and AMPK was detected by western-blot.
The effect of TR3 on AMPK was detected by western-blot.

c1ccc2c(c1)CN1CCc3c([nH]c4ccccc34)C1=N2 [TR3, 5,7,8,13-tetrahydroindolo[2′,3′:3,4]pyrido[2,1-b]quinazoline]
activation of PPARα [1]: simultaneously activated PPARα/γ/δ and LXRα/β to a certain extent
atherosclerotic plaque area in the aorta [2]: significantly reduced
level of IL-1β in mouse serum [3]: decreased the levels of IL-1β, IL-18 and IL-6 significantly
level of IL-6 in mouse serum [3]: decreased the levels of IL-1β, IL-18 and IL-6 significantly
level of IL-18 in mouse serum [3]: decreased the levels of IL-1β, IL-18 and IL-6 significantly
level of TNF-α in mouse serum [3]: decreased the levels of IL-1β, IL-18 and IL-6 significantly and the level of TNF-α slightly
AMPK level [4]: significantly up-regulated
